According to patent publication US12054500B2, “Arginase inhibitors” (ARCUS BIOSCIENCES, INC., priority 2018, dated 2024):
pIC50: −log10 of the molar value.

Target: T1, recombinant human ARG1 (Homo sapiens, UniProt P05089)
T1 sequence (P05089 1-322): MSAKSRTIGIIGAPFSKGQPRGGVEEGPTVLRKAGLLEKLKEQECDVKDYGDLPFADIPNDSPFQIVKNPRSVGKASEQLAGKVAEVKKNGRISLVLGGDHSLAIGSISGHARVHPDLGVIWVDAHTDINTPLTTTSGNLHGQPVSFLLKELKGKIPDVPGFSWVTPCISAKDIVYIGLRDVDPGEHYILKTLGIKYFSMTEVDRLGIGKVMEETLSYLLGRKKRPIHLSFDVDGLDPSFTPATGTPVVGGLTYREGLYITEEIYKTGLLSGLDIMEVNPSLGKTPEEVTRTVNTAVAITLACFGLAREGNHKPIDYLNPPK
Assay: Arginase coupled enzymatic assay using recombinant human ARG1
Type: biochemical
Settings: 2 nM ARG1, 0.8 mM L-Arginine, 10 mM sodium phosphate pH 7.4, 37° C.; read-out: Potency: Arginase 1 inhibition IC50
Description: Measurement of Compound Potency by Arginase Coupled Enzymatic Assay Using Recombinant Human ARG1 and ARG2
Purified recombinant human ARG1 and ARG2 were prepared in 50 mM Bicine, pH 8.5, 100 μM MnCl2, 20% glycerol and 1 mM DTT at a final stock concentration of 14.4 μM and 7.56 μM respectively. 2.5 nM of either ARG1 or ARG2 were incubated with varying concentrations of compounds in 10 mM sodium phosphate, pH 7.4, 0.1 mM MnCl2 and 2.5% DMSO in a total volume of 40 μl in a 384-well microplate (Corning™ #3640) at 37° C. for 1 h. The arginase enzymatic reaction was initiated by addition of 10 μl of 4 mM L-Arginine pre-incubated in 10 mM sodium phosphate, pH 7.4, and 0.1 mM MnCl2 at 37° C. into the enzyme and compound mixture, giving the final reaction conditions: 2 nM of ARG1 or ARG2 and 0.8 mM of L-Arginine in 10 mM sodium phosphate, pH 7.4, 0.1 mM MnCl2 and 2% DMSO with varying concentrations of compounds. Following 2 h incubation at 37° C., the arginase enzymatic reaction was stopped by transfer of 10 μl of reaction into 10 μl of detection mix (204 μM Amino-2-Borono-6-Hexanoic Acid, 0.25 μl Arginase Enzyme mix, 0.25 μl Arginase Developer, 0.25 μl Arginase Converter Enzyme in Arginase Assay Buffer from Arginase Activity Colorimetric Assay Kit, BioVision Inc. #K755-100) in a transparent 384-well microplate (Greiner #781801). The plate was immediately put into a plate reader (Synergy™ Neo2 Multi-Mode Microplate Reader) to monitor absorption at 570 nm at 37° C. Absorption values at 12-20 min were used to calculate compound potency. The value of the DMSO blank (MIN inhibition=100% activity) was used as a negative control. The positive control was established by adding 8 μl of enzyme and DMSO mix into 10 μl of detection mix followed by addition of 2 μl of L-Arginine (MAX inhibition=0% activity). To calculate the percent activity, Equation 1 was used. Abs570nm is the value at a given compound concentration:
A counter-screen was performed to identify any inhibition of the coupling enzymes by the test compounds. 10 μl of 0.26 mM of urea with varying concentrations of compounds in 10 mM sodium phosphate, pH 7.4, 0.1 mM MnCl2 and 2% DMSO were added into 10 μl of detection mix in place of the arginase enzymatic reaction mix. Absorption was monitored at 570 nm as described above. The values of a no substrate blank (without urea; MAX inhibition=0% activity) and a DMSO blank (MIN inhibition=100% activity) were used as positive and negative controls respectively. […] Inactivity in the counter-screen was used to confirm that results accurately reflected IC50 values for ARG1 and ARG2.

| SMILES | pIC50 |
| --- | --- |
| C[C@H](N)C(=O)N1C[C@@H]2C[C@](N)(C(=O)O)[C@H](CCCB(O)O)[C@@H]2C1 | 6.00 to 7.00 |
| N[C@@]1(C(=O)O)C[C@H]2CN(C3COC3)C[C@H]2[C@@H]1CCCB(O)O | 6.00 to 7.00 |
| N[C@@]1(C(=O)O)C[C@H]2CN(C(CO)CCl)C[C@H]2[C@@H]1CCCB(O)O (some centres unmarked) | > 7.00 |

The remaining lines, values ahead:

| pIC50 | SMILES |
| --- | --- |
| 6.00 to 7.00 | NCCN1C[C@@H]2C[C@@](N)(C(=O)O)[C@@H](CCCB(O)O)[C@@H]2C1 |
| > 7.00 | N[C@@]1(C(=O)O)C[C@H]2CNC[C@H]2[C@@H]1CCCB(O)O |
| 6.00 to 7.00 | C[C@H](N)C(=O)N1C[C@@H]2C[C@@](N)(C(=O)O)[C@@H](CCCB(O)O)[C@@H]2C1 |
| 6.00 to 7.00 | N[C@]1(C(=O)O)C[C@H]2CN(C(=O)[C@@H]3CCCN3)C[C@H]2[C@H]1CCCB(O)O |
| 6.00 to 7.00 | CC1(C)[C@H]2C[C@@H]3OB(CCC[C@H]4[C@@H]5CNC[C@@H]5C[C@@]4(N)C(=O)O)O[C@]3(C)[C@@H]1C2 |
